The values that follow come from ChEMBL document CHEMBL4229524, “Design, synthesis and preclinical evaluation of 5-methyl-N4-aryl-furo[2,3-d]pyrimidines as single agents with combination chemotherapy potential” (Bioorg Med Chem Lett, 2018).

Usually IC50 stands for the concentration needed to halve the response being measured. What is called EC50 is the concentration needed to bring the measured effect to its halfway point. As a reminder, the inhibition is how much of the control response was suppressed.

The target in test [1] is Epidermal growth factor receptor (Homo sapiens, UniProt P00533). In kind it is cell-based.
In test [2] the target is Vascular endothelial growth factor receptor 2 (Homo sapiens, UniProt P35968). In kind it is cell-based.
For test [3], the target named is Platelet-derived growth factor receptor beta (Homo sapiens, UniProt P09619). As to the kind of experiment: Inhibition of PDGF-BB-induced PDGFRbeta activation in human SH-SY5Y cells pretreated for 60 mins followed by PDGF-BB addition and measured after 10 mins by ELISA. In kind it is cell-based. A general note: An ELISA detects its analyte on a solid surface through an enzyme-linked reagent.

Another test deals with A-431. As to the kind of experiment: Cytotoxicity against human A431 cells over-expressing EGFR. The class given is functional, cell-based.
For the next test, the system named is Chorioallantoic membrane. Briefly: Antiangiogenic activity in Leghorn chicken embryo chorioallantoic membrane after 40 hrs by microscopic analysis. In kind it is functional, tissue-based. The note with it: Gallus gallus.
The next test has as its system A10. Briefly: Induction of microtubule depolymerization in rat A10 cells after 18 hrs by indirect immunofluorescence method. In kind it is functional, cell-based. The note with it: A10, 18 h.
The subject of a further test is MDA-MB-435. Briefly: Antiproliferative activity against human MDA-MB-435 cells after 72 hrs by sulforhodamine B assay. In kind it is functional, cell-based. The note with it: MDA-MB-435, 72 h. Background: The SRB assay estimates cell density from bound dye.
A further test relates to SK-OV-3. As to the kind of experiment: Antiproliferative activity against human SKOV3 cells after 72 hrs by sulforhodamine B assay. The class given is functional, cell-based. The note with it: SK-OV-3, 72 h.
Test [4] in a line: Antiproliferative activity against human SKOV3-MDR1-M6/6 cells after 72 hrs by sulforhodamine B assay. The class given is functional. The note with it: SKOV3-MDR1-M6/6, 72 h.
Test [5] is described as follows: Resistance index, ratio of IC50 for human SKOV3-MDR1-M6/6 cells to IC50 for human SKOV3 cells. The class given is functional.
The next test relates to HeLa. As to the kind of experiment: Antiproliferative activity against human HeLa cells after 72 hrs by sulforhodamine B assay. In kind it is functional, cell-based.
The nature of test [6]: Antiproliferative activity against human wild-type Hela-beta3 cells after 72 hrs by sulforhodamine B assay. The class given is functional.
Test [7] can be described thus: Resistance index, ratio of IC50 for human HeLa cells to IC50 for human wild-type Hela-beta3 cells. In kind it is functional.
Test [8] in a line: Inhibition of bovine brain tubulin assembly pretreated for 15 mins followed by GTP addition by spectrophotometric method. More on the design: species or system Bos taurus.
The species named for test [9] is Bos taurus. As to the kind of experiment: Inhibition of [3H]colchicine binding to bovine brain tubulin at 1 uM measured after 10 mins relative to control.
The species entered for test [10] is Bos taurus. As to the kind of experiment: Inhibition of [3H]colchicine binding to bovine brain tubulin at 5 uM measured after 10 mins relative to control.

Epidermal growth factor receptor, sequence (P00533 whole entry): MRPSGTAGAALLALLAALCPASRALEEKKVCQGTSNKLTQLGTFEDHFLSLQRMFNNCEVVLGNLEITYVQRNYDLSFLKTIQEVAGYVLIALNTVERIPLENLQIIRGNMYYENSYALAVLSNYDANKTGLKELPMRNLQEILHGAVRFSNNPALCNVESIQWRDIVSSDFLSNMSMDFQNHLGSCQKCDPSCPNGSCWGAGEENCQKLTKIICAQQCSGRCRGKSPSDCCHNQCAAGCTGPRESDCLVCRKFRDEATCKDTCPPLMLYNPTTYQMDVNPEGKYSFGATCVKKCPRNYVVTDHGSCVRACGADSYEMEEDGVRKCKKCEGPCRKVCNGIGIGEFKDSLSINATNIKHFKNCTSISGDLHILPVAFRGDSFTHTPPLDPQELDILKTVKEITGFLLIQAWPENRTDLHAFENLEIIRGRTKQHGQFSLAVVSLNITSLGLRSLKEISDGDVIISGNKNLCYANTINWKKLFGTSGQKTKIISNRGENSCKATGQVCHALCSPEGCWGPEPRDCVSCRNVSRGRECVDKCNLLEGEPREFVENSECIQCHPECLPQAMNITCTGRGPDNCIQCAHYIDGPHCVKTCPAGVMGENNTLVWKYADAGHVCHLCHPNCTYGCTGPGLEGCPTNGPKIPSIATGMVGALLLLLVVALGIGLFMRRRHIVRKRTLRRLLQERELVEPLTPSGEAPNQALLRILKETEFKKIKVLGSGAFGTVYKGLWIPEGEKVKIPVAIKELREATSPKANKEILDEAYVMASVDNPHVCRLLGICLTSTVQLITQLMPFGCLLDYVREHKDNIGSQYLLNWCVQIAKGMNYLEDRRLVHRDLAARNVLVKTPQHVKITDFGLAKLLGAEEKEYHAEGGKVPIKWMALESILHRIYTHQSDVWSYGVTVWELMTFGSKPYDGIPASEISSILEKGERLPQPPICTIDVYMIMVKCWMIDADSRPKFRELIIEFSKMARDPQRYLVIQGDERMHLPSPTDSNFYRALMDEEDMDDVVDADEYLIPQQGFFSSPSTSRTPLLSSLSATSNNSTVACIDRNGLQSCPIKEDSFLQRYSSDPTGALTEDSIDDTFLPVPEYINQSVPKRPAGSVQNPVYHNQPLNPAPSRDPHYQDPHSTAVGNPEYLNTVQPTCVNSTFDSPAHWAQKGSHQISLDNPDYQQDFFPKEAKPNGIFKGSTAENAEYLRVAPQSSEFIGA
Vascular endothelial growth factor receptor 2, sequence (P35968 whole entry): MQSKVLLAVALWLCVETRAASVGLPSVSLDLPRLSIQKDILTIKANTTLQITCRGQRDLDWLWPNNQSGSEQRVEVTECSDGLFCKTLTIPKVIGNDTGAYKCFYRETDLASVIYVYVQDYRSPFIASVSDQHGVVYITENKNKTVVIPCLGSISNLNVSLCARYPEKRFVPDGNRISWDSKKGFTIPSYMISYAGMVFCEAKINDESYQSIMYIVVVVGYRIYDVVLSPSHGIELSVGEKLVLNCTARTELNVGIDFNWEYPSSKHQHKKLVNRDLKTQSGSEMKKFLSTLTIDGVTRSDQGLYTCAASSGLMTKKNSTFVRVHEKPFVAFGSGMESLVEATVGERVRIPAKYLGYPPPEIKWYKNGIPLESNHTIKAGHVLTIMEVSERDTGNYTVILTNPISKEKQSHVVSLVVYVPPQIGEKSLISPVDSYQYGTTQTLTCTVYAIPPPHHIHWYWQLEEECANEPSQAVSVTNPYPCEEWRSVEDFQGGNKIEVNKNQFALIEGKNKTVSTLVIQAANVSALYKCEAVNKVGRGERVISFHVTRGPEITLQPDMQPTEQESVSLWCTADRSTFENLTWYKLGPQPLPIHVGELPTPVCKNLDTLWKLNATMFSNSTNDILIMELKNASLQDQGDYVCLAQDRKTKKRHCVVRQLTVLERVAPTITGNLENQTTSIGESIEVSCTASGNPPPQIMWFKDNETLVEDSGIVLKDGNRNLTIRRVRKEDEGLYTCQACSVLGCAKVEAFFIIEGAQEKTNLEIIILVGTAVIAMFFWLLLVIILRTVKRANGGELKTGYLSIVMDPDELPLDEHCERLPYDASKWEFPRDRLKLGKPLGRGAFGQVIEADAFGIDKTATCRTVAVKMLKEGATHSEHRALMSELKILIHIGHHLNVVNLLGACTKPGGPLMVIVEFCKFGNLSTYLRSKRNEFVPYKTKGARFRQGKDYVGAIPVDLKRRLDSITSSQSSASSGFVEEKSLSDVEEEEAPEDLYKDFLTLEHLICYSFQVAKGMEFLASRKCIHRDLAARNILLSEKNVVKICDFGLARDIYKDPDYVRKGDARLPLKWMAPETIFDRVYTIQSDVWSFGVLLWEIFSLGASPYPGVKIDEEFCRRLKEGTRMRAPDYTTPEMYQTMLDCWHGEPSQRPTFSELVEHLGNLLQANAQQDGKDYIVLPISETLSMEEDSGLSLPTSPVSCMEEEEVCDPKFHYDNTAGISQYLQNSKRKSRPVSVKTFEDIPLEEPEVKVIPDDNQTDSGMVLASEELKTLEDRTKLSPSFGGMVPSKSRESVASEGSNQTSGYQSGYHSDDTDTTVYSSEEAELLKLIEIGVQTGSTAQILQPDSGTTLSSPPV
Platelet-derived growth factor receptor beta, sequence (P09619 whole entry): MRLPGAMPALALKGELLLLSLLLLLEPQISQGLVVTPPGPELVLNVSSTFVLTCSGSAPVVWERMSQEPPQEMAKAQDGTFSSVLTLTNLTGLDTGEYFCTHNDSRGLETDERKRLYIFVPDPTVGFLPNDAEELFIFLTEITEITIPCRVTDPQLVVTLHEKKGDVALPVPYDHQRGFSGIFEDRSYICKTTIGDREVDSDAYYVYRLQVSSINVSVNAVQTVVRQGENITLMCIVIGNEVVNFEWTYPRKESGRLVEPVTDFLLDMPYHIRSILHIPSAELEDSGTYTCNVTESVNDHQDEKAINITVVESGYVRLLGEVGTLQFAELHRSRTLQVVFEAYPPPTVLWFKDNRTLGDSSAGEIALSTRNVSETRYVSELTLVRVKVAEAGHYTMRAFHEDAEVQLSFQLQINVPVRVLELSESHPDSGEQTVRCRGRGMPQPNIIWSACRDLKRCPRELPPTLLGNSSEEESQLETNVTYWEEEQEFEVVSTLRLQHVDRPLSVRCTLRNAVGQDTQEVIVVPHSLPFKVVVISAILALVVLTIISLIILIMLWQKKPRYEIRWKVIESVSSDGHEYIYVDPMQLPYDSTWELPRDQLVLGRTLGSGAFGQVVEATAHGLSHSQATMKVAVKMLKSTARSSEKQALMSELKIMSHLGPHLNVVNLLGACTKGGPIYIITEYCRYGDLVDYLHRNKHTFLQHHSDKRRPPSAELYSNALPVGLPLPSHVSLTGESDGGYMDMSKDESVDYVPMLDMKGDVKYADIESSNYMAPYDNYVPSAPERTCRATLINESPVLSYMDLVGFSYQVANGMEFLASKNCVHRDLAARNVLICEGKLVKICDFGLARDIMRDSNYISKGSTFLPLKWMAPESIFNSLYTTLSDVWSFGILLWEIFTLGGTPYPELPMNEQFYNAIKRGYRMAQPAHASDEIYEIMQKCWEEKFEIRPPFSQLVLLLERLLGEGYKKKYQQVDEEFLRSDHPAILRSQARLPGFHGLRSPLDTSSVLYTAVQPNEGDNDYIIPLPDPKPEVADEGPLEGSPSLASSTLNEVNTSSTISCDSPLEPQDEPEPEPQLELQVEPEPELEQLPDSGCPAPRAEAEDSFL

Turning to `Cc1coc2ncnc(N(C)c3ccc(N(C)C)cc3)c12`, the IC50 in [1] is 3.1 nM; in test [2] it was 15.6 nM; in [3], 63 nM; with A-431, 1 nM; with Chorioallantoic membrane, 653 nM; with MDA-MB-435, 44 nM. For the same compound, the IC50 in the test on SK-OV-3 was found to be 70 nM; in test [4] it was 91 nM; in the test with HeLa, 58 nM; in [6], 60 nM; in [8], 1100 nM. For the same compound, the response with A10 was half-maximal at 140 nM (EC50). For the same compound, the “Ratio IC50” value in test [5] amounted to 1.3; in test [7] it was 1. The inhibition in the test filed under Bos taurus [9] amounted to 59%; in the test listed under Bos taurus [10], 86%.
